Holding throughout (format): physicochemical
The nature of series [1]: Phase diagram in aqueous system (FIG. 1).
Series [2] in a line: Hygroscopicity of isolated powder. Conditions: white powder.
Series [3] in a line: Lather amount (lather volume) of 5% aqueous solution of surface active agent. Conditions: 100 g, 1000 rpm, 30 seconds agitation, 10 seconds standing, 40° C. How it is done:
The lather amount was measured according to the following manner. An aqueous solution containing 5% of surface active agent is prepared and 100 g of the aqueous solution is poured into a measuring cylinder, followed by agitation for 30 seconds by agitator. After agitation, the aqueous solution is placed as it is for 10 seconds, followed by subjecting to measurement of the lather volume. The revolution of the agitator is 1000 rpm and the agitator paddles are reversely rotated every 5 seconds. Temperature was maintained 40° C. during the measurement.

Series [4] can be described thus: Craft point.

As for `C=C(C)C(=O)OCC(O)COP(=O)([O-])OCCCCCCCCCCCC.[Na+]` (stereo not drawn) [Compound (XIV), sodium dodecyl 2-hydroxy-3-methacryloyloxypropyl phosphate], in series [1], the “phase diagram in aqueous systems” value is “liquid crystals”. `CCCCCCCCCCCCOP(=O)([O-])OCC(O)C[N+](C)(C)C` (stereo not drawn) [Example 14]: the hygroscopicity entry in series [2] was “very hygroscopic”. For the compound `CCCCCCCCCCCCOP(=O)([O-])[O-].[Na+].[Na+]` [Sodium 1 dodecyl phosphate], the “lather amount (lather Vol. ml)” value in series [3] was determined as 260 mL. Also, in series [4], the “craft point (°C.)” value came to 32 °C. On to Sodium 2 dodecyl phosphate, for which the “lather amount (lather Vol. ml)” value in series [3] was determined as 230 mL. The “craft point (°C.)” value in series [4] came to 20 °C.

Source of the values: patent publication US4736051A, “Process for the preparation of an alkali metal salt of a diester phosphoric acid” (Kao Corporation, priority 1985, dated 1988).
